These results are taken from ChEMBL document CHEMBL1154517, “Antimitotic activity of two macrocyclic bis(bibenzyls), isoplagiochins A and B from the Liverwort Plagiochila fruticosa” (Bioorg Med Chem Lett, 2009).

The structures appear in SMILES notation. Bounds are passed on as bounds.

The assay can be described thus: Inhibition of tubulin polymerization.
For orientation: IC50 means the midpoint of a concentration-inhibition curve. A lower IC50 goes with higher potency. `Oc1ccc2cc1-c1cc(ccc1O)CCc1c(ccc(O)c1O)Oc1cccc(c1)/C=C\2` [ISOPLAGIOCHIN B]: the Activity entry was “Dose-dependent effect” and the midpoint of inhibition, the IC50, lay at 25 µM.

`CC[C@]1(O)C[C@@H]2CN(CCc3c([nH]c4ccccc34)[C@@](C(=O)OC)(c3cc4c(cc3OC)N(C)[C@H]3[C@@](O)(C(=O)OC)[C@H](OC(C)=O)[C@]5(CC)C=CCN6CC[C@]43[C@@H]65)C2)C1` [VINBLASTINE] displayed an IC50 of 2 µM.

`Oc1ccc2c(c1)CCc1ccc(O)c(c1)-c1cc(ccc1O)/C=C\c1cccc(c1)O2` [ISOPLAGIOCHIN A]: the IC50 was determined as 50 µM.

As for `Oc1ccc2c(c1)CCc1ccc(O)c(c1)-c1cc(ccc1O)CCc1cccc(c1)O2` [DIHYDROISOPLAGIOCHIN A], the IC50 is more than 100 µM.

Consider `Oc1ccc2cc1-c1cc(ccc1O)CCc1c(ccc(O)c1O)Oc1cccc(c1)CC2` [DIHYDROISOPLAGIOCHIN B], for which the IC50 is more than 100 µM.
